Laboratory results taken from patent publication US20240255509A1, “COMPOSITIONS AND METHODS RELATED TO K180 DIMETHYLATED H1.0 PROTEIN” (Aelan Cell Technologies, Inc., priority 2016, published 2024).
Each block holds one molecule with its values, some of them ahead of it.

Tests used:
[1] = test system: chromatin-bound H1.0K180me2 and γH2A.X; assay: Western blot of chromatin-bound H1.0K180me2 and γH2A.X upon bleomycin with PARP-1 inhibition; assay type: cell-based, human; conditions: 1 μM for 24 hours, bleomycin treatment
Source text: (§1) Material for western blot analysis (cultured cells or tissue) was lysed in ice-cold RIPA lysis buffer (Thermo Scientific 89900) and sonicated using a Covaris S2 sonicator (10% duty cycle, Intensity 5, Bursts per minute 100, 120 seconds). Total protein concentration in each sample was quantified using Quick Start Bradford 1× Dye Reagent (BioRad, 5000205) following manufacturer's protocol. Samples were then mixed with NUPAGE LDS sample loading buffer (ThermoFisher, NP0007) and NUPAGE sample reducing buffer (ThermoFisher, NP0004), and heat denatured at 70° C. for 10 minutes. Proteins were separated on 4-12% precast polyacrylamide gels (ThermoFisher, NP0321) by electrophoresis and transferred to 0.45 μm nitrocellulose membrane. […] Proteins were detected with HRP secondary antibodies listed above for 1 hour at RT followed by ECL Western Blotting Substrate (ThermoFisher, 32106) using manufacturer's instructions. […]
(§2) To further assess if H1.0K180 methylation is dependent on the DNA damage repair pathway protein PARP-1 activity, western blot analysis was performed according to methods described in Example 1, to examine chromatin-bound H1.0K180me2 and γH2A.X upon treatment with bleomycin. […] Thus it was determined that H1.0K180 methylation is independent of DNA damage repair pathway protein PARP-1 activity

PARP-1 = molecular target: T1, PARP-1 (Homo sapiens, UniProt P09874); assay: Western blot of PARP-1 inhibitor activity in whole cell lysates (poly-(ADP)-ribose levels); assay type: cell-based; conditions: 1 μM for 24 hours
T1 construct: endogenous in cells; host or cells: hADSCs (inferred)
Source text: as §1, §2

H1.0K180me2 [2] = assay: Western blot for H1.0K180me2 in SR hADSCs treated with bleomycin after rapamycin or everolimus pretreatment; assay type: cell-based, human; conditions: 500 nM, 24 hours pretreatment, then bleomycin 2 hours
Source text: as §1
To test if rapamycin derivatives may block H1.0K180me2 appearance upon DNA damage, SR hADSCs were treated with bleomycin for 2 hours with or without pretreatment with rapamycin or everolimus (a derivative of rapamycin) for 24 hours. Cells were then lysed and analyzed be western blot for H1.0K180me2, γH2A.X and β-Actin, according to methods described in Example 1.

secreted H1.0K180me2 = assay: Slot blot of conditioned medium of hADSCs after bleomycin (secretion); assay type: cell-based, human
Procedure: 0.5 μl of serum sample or known amounts of synthesized peptide were diluted in 200 μl TBS. Samples were then heat denatured at 70° C. for 10 minutes before being transferred to nitrocellulose membrane using a vacuum manifold slot blot apparatus (BioRad, 1706542). The membrane was blocked with 5% non-fat milk in PBS-T for 30 minutes at RT then immunoblotted with the above primary antibodies at 4° C. overnight. Proteins were detected with HRP secondary antibodies listed above for 1 hour at RT followed by ECL Western Blotting Substrate (ThermoFisher, 32106) using manufacturer's instructions. All washes between steps were with PBS-T. Membranes were imaged with Omega LUM-C imaging system (Gel Company). Slot blot bands for each sample were then quantified using ImageJ.
This signifies secretion out of the cells. An increase in DNA fragmentation factor (DFFB/DFF40/CAD) secretion upon GSI-SEN was seen, in a similar manner to H1.0K180me2 starting 48 hours after treatment (FIG. 7B).
SR hADSCs, hADSCs treated with bleomycin for 2 hours (acute DNA damage) and hADSCs treated with bleomycin and allowed to senesce for 3 days (genotoxic stress induced senescence) were lysed and fractionated into soluble and chromatin bound fractions. These fractions were then subjected to LC-MS/MS analysis. Peptide expression levels were taken as the total area under the LC-MS/MS relative intensity curve, and individual peptides were unambiguously assigned to proteins using Pinpoint software, version 1.4 (Thermo Scientific). The areas of all peptides assigned to an individual protein were summed to yield protein expression levels, which were normalized against the total protein library size for each sample. For each cellular fraction, H1.0 peptide abundance is represented as a percentage of total H1.0 peptides observed in each condition. Normalized absolute values of H1.0 peptide levels in each fraction were also shown. […] Culture media from SR hADSCs treated with bleomycin was collected for slot blot analysis with α-H1.0 and α-H1.0K180me2 antibodies to assess secretion of H1.0 to the extracellular matrix (ECM). The experiment was carried out according to methods described in Example 1.

H1.0K180me2 [3] = assay: Western blot for H1.0K180me2 in SR hADSCs after bleomycin or temozolomide; assay type: cell-based, human; conditions: SR hADSCs treated for 2 hours, 50 μg/ml
Source text: Material for western blot analysis (cultured cells or tissue) was lysed in ice-cold RIPA lysis buffer (Thermo Scientific 89900) and sonicated using a Covaris S2 sonicator (10% duty cycle, Intensity 5, Bursts per minute 100, 120 seconds). Total protein concentration in each sample was quantified using Quick Start Bradford 1× Dye Reagent (BioRad, 5000205) following manufacturer's protocol. Samples were then mixed with NUPAGE LDS sample loading buffer (ThermoFisher, NP0007) and NUPAGE sample reducing buffer (ThermoFisher, NP0004), and heat denatured at 70° C. for 10 minutes. Proteins were separated on 4-12% precast polyacrylamide gels (ThermoFisher, NP0321) by electrophoresis and transferred to 0.45 μm nitrocellulose membrane. The membrane was blocked with 5% non-fat milk in PBS-T for 30 minutes at RT then immunoblotted with the above primary antibodies at 4° C. overnight. Proteins were detected with HRP secondary antibodies listed above for 1 hour at RT followed by ECL Western Blotting Substrate (ThermoFisher, 32106) using manufacturer's instructions. All washes between steps were with PBS-T. Membranes were imaged with Omega LUM-C imaging system (Gel Company). […]
SR hADSCs were treated for 2 hours with bleomycin or temozolomide, a compound that triggers base excision repair pathways. Cells were then lysed and analyzed be western blot for H1.0K180me2, γH2A.X and β-Actin.

H1.0K180me2 [4] = assay: H1.0K180me2 on chromatin (western blot) and localization in hADSCs after bleomycin; assay type: cell-based, human
Procedure: (§3) For replicative senescence, hADSCs were grown in culture until reaching replicative exhaustion (PD 41-46). For acute DNA damage conditions, SR hADSCs (PD 4-10) were treated with 50 μg/ml bleomycin sulfate (Cayman Chemical, 13877) in growth media for 2 hours. For genotoxic stress-induced senescence, SR hADSCs (PD 4-10) were treated with 50 μg/ml bleomycin sulfate (Cayman Chemical, 13877) in growth media for 2 hours then washed with PBS and given fresh growth media without bleomycin. Cells were then grown for 3 days before collection.
as §1, with “minutes.” for “minutes. Proteins were separated on 4-12% precast polyacrylamide gels (ThermoFisher, NP0321) by electrophoresis and transferred to 0.45 μm nitrocellulose membrane.”

histone H1.0 mRNA = assay: RT-PCR analysis of histone H1.0 mRNA expression in hADSCs after bleomycin; assay type: cell-based, human
Procedure: as §3
RT-PCR analysis of histone H1.0 mRNA expression was performed on total RNA derived from self-replicating hADSCs, hADSCs treated with bleomycin for 2 hours (acute DNA damage) and hADSCs treated with bleomycin and allowed to senesce for 3 days (genotoxic stress-induced senescence). H1.0 mRNA expression increases over 2-fold upon acute DNA damage, and remains elevated (1.5-fold over SR) upon genotoxic stress induced senescence.

Chromatin bound H1.0 = assay: LC-MS/MS of soluble and chromatin bound fractions of hADSCs after bleomycin; assay type: cell-based, human
Procedure: as §3
SR hADSCs, hADSCs treated with bleomycin for 2 hours (acute DNA damage) and hADSCs treated with bleomycin and allowed to senesce for 3 days (genotoxic stress induced senescence) were lysed and fractionated into soluble and chromatin bound fractions. These fractions were then subjected to LC-MS/MS analysis. Peptide expression levels were taken as the total area under the LC-MS/MS relative intensity curve, and individual peptides were unambiguously assigned to proteins using Pinpoint software, version 1.4 (Thermo Scientific). The areas of all peptides assigned to an individual protein were summed to yield protein expression levels, which were normalized against the total protein library size for each sample. For each cellular fraction, H1.0 peptide abundance is represented as a percentage of total H1.0 peptides observed in each condition. […]

[5] = acute DNA damage: bleomycin for 2 hours
[6] = genotoxic stress induced senescence: bleomycin, then 3 days

T1 sequence (P09874 whole entry): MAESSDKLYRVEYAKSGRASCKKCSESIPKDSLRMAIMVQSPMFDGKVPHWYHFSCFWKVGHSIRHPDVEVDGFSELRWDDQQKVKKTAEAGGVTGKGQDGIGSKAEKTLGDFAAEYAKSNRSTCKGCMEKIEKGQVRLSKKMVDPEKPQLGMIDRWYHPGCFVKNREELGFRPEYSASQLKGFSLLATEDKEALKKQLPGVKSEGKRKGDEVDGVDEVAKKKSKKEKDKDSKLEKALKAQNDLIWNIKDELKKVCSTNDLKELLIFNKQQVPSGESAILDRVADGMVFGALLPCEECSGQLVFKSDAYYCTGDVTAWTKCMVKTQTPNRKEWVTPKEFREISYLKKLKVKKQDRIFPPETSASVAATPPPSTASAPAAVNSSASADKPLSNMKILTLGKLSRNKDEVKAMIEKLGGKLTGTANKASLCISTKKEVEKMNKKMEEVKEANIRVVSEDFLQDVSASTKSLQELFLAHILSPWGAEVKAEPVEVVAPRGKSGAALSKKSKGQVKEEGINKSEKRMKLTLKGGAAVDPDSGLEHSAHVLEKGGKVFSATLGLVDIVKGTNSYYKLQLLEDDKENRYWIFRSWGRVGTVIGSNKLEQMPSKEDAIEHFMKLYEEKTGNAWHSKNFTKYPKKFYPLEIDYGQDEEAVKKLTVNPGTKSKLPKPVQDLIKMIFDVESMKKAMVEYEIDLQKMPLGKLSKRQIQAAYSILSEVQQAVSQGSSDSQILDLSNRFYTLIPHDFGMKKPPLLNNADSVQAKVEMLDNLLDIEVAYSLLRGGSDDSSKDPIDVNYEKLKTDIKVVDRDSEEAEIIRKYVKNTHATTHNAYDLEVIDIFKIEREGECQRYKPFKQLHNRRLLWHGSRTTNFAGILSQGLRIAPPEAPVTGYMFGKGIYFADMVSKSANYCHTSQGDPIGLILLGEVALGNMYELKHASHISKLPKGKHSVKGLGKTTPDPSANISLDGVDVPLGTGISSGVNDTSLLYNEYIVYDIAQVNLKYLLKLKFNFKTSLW

poly-(ADP)-ribose (PAR) levels increased upon bleomycin treatment (PARP-1): abolished
Molecule: CN(C)Cc1ccc(-c2nc3cccc4c3n2CCNC4=O)cc1 [AG14361]
accumulation of chromatin-bound H1.0K180me2 [1]: increased accumulation
accumulation of chromatin-bound γH2A.X [1]: increased accumulation

Molecule: CO[C@H]1C[C@@H]2CC[C@@H](C)[C@@](O)(O2)C(=O)C(=O)N2CCCC[C@H]2C(=O)O[C@H]([C@H](C)C[C@@H]2CC[C@@H](OCCO)[C@H](OC)C2)CC(=O)[C@H](C)/C=C(\C)[C@@H](O)[C@@H](OC)C(=O)[C@H](C)C[C@H](C)/C=C/C=C/C=C/1C [everolimus, Everolimus]
appearance of H1.0K180me2 upon bleomycin treatment (H1.0K180me2 [2]): reduced the appearance of H1.0K180me2

Molecule: bleomycin sulfate
DNA fragmentation factor (DFFB/DFF40/CAD) secretion (secreted H1.0K180me2; GSI-SEN, starting 48 hours after treatment): increase
secretion of H1.0K180me2 and DFFB upon onset of acute DNA damage (ADD) (secreted H1.0K180me2; acute DNA damage): None of the protein is secreted in measurable quantities
secreted H1.0K180me2 in cell culture media (secreted H1.0K180me2; after 24 hours of bleomycin treatment): readily detected
time of maximal H1.0K180me2 secretion into conditioned medium (secreted H1.0K180me2; time course after bleomycin): ≤ 48 h
induction of H1.0K180me2 methylation (H1.0K180me2 [3]): capable of inducing H1.0K180me2 methylation
localization of H1.0K180me2 (H1.0K180me2 [4]; SR hADSCs treated with bleomycin): localized to the cytoplasm
methylation of H1.0K180 on chromatin (H1.0K180me2 [4]; bleomycin for 2 hours, chromatin bound fraction, western blot): methylation of H1.0K180 on the chromatin
H1.0 mRNA expression increase over SR (histone H1.0 mRNA; [5]): over 2 fold
H1.0 mRNA expression increase over SR (histone H1.0 mRNA; [6]): 1.5 fold
Chromatin bound H1.0, % of total H1.0 peptides (Chromatin bound H1.0; [5]): ~60%
Chromatin bound H1.0, % of total H1.0 peptides (Chromatin bound H1.0; [6]): ~30%
